From patent US12404295B2, “(Hetero)aryl-methyl-thio-beta-D-galactopyranoside derivatives” (Idorsia Pharmaceuticals Ltd, priority 2019, dated 2025) come the findings set out here.

For one test, the target named is human Gal-1 (hGal-1) (Homo sapiens (Human), UniProt P09382). As to the kind of experiment: competitive binding assay: biotinylated hGal-1 binding to microplate-adsorbed asialofetuin (ASF). As to conditions: Table 15; read-out: IC50 (Galectin-1 inhibition). On the procedure:
Inhibition data of the epimers R and S of selected Examples are also listed.
(§1) Evaluation of Compound Inhibitory Activity (IC50)
The inhibitory activity of compounds is determined in competitive binding assays. This spectrophotometric assay measures the binding of biotinylated human Gal-3 (hGal-3) or human Gal-1 (hGal-1), respectively, to a microplate-adsorbed glycoprotein, asialofetuin (ASF) (Proc Natl Acad Sci USA. 2013 Mar. 26; 110(13):5052-7.).
Briefly, compounds are serially diluted in DMSO (working dilutions). ASF-coated 384 well plates are supplemented with 22.8 μL/well of biotinylated hGal-3 or hGal-1 in assay buffer (i.e. 300-1000 ng/mL biotinylated hGal-3 or hGal-1) to which 1.2 μL of compound working dilutions are added and mixed.
(§2) Plates are incubated for 3 hours at 4° C., then washed with cold assay buffer (3×50 uL), incubated for 1 hour with 25 μL/well of a streptavidin-peroxidase solution (diluted in assay buffer to 80 ng/mL) at 4° C., followed by further washing steps with assay buffer (3×50 uL). Finally, 25 μL/well of ABTS substrate is added.
(§3) The calculated IC50 values may fluctuate depending on the daily assay performance. Fluctuations of this kind are known to those skilled in the art. IC50 values from several measurements are given as mean values.

Another test concerns the target human Gal-3 (hGal-3) (Homo sapiens (Human), UniProt P17931). As to the kind of experiment: competitive binding assay: biotinylated hGal-3 binding to microplate-adsorbed asialofetuin (ASF). On the procedure: If not explicitly mentioned otherwise, the inhibition data refer to the binding of biotinylated human Gal-3 (hGal-3).
as §1
The inhibitory activity of compounds is determined in competitive binding assays.
Briefly, compounds are serially diluted in DMSO (working dilutions).
as §2, §3

Setting [1] is: Table 10, 2-OMe-Gal inhibitors, read-out: IC50 (Gal-3 inhibition).
The mark [2] stands for this setting: Gal-3 inhibition, binding of biotinylated hGal-3 to ASF, mean values, read-out: IC50.
[3] abbreviates: Table 5, read-out: IC50 (Gal-3 inhibition).

SMILES strings stand for the structures. Like-named read-outs stand apart in the source and are kept apart here.

Chain of human Gal-3 (hGal-3) (P17931 whole entry): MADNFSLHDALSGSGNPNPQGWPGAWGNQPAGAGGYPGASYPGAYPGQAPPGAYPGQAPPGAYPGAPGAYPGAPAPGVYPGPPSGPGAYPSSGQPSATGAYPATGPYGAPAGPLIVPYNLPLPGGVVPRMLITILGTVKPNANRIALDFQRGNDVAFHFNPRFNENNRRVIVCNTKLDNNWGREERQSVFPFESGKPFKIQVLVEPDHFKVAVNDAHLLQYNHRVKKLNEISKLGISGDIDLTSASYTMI
Chain of human Gal-1 (hGal-1) (P09382 whole entry): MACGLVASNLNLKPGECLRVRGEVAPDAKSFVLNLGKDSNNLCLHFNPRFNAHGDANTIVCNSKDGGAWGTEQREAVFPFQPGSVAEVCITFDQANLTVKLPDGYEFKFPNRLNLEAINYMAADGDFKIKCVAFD

For orientation: IC50 means the point on the concentration scale where inhibition reaches its midpoint. For `CO[C@@H]1[C@@H](n2cc(-c3cc(F)c(F)c(F)c3)nn2)[C@@H](O)[C@@H](CO)O[C@H]1S[C@@H](c1ccccc1C(C)C)C1(O)CCC(F)(F)CC1` [Example 2.44.105S.I., (2R,3R,4S,5R,6S)-6-(((S)-(4,4-Difluoro-1-hydroxycyclohexyl)(2-isopropylphenyl)methyl)thio)-2-(hydroxymethyl)-5-methoxy-4-(4-(3,4,5-trifluorophenyl)-1H-1,2,3-triazol-1-yl)tetrahydro-2H-pyran-3-ol], the values for the half-maximal inhibitory concentration (IC50) on human Gal-1 (hGal-1) and at human Gal-3 (hGal-3) (setting [1]) were 53.3 µM and 70.5 µM, respectively.
Consider `CO[C@@H]1[C@@H](n2cc(-c3cc(F)c(F)c(F)c3)nn2)[C@@H](O)[C@@H](CO)O[C@H]1SC(c1ncccc1Cl)C1(O)CCC(F)(F)CC1` (stereo partly drawn) [Example 2.44.137.I., (2R,3R,4S,5R,6S)-6-(((3-Chloropyridin-2-yl)(4,4-difluoro-1-hydroxycyclohexyl)methyl)thio)-2-(hydroxymethyl)-5-methoxy-4-(4-(3,4,5-trifluorophenyl)-1H-1,2,3-triazol-1-yl)tetrahydro-2H-pyran-3-ol], for which the IC50 at human Gal-1 (hGal-1) was determined as 4.36 µM; at human Gal-3 (hGal-3) (Table 9, 2-OMe-Gal inhibitors, read-out: IC50 (Gal-3 inhibition)) it was 0.14 µM.
For the compound `Cc1nc(C)c([C@H](S[C@@H]2O[C@H](CO)[C@H](O)[C@H](n3cc(-c4cc(F)c(F)c(F)c4)nn3)[C@H]2O)C(C)(C)O)nc1C` [Example 2.31.119S., (2S,3R,4S,5R,6R)-2-(((S)-2-Hydroxy-2-methyl-1-(3,5,6-trimethylpyrazin-2-yl)propyl)thio)-6-(hydroxymethyl)-4-(4-(3,4,5-trifluorophenyl)-1H-1,2,3-triazol-1-yl)tetrahydro-2H-pyran-3,5-diol], the IC50 on human Gal-1 (hGal-1) came out at 18.4 µM; at human Gal-3 (hGal-3) (setting [2]), 2.63 µM.
As for `CO[C@@H]1[C@@H](n2cc(-c3cc(F)c(F)c(F)c3)nn2)[C@@H](O)[C@@H](CO)O[C@H]1SC(c1nccc(C(F)(F)F)c1C)C1(O)CCC(F)(F)CC1` (stereo partly drawn) [Example 2.44.147.I., (2R,3R,4S,5R,6S)-6-(((4,4-Difluoro-1-hydroxycyclohexyl)(3-methyl-4-(trifluoromethyl)pyridin-2-yl)methyl)thio)-2-(hydroxymethyl)-5-methoxy-4-(4-(3,4,5-trifluorophenyl)-1H-1,2,3-triazol-1-yl)tetrahydro-2H-pyran-3-ol], the IC50 on human Gal-1 (hGal-1) worked out at 1.24 µM; on human Gal-3 (hGal-3) (Table 11, read-out: IC50 (Gal-3 inhibition)), 0.24 µM.
Turning to `CN1CCC(O)([C@H](S[C@@H]2O[C@H](CO)[C@H](O)[C@H](n3cc(-c4cc(F)c(F)c(F)c4)nn3)[C@H]2O)c2ccccc2C(F)(F)F)CC1` [Example 2.40.112R., (2S,3R,4S,5R,6R)-2-(((R)-(4-Hydroxy-1-methylpiperidin-4-yl)(2-(trifluoromethyl)phenyl)methyl)thio)-6-(hydroxymethyl)-4-(4-(3,4,5-trifluorophenyl)-1H-1,2,3-triazol-1-yl)tetrahydro-2H-pyran-3,5-diol], the values for the IC50 at human Gal-1 (hGal-1) and at human Gal-3 (hGal-3) (setting [3]) were 0.15 µM and 0.06 µM, respectively.
`Cc1ccccc1[C@@H](S[C@@H]1O[C@H](CO)[C@H](O)[C@H](n2cc(-c3cc(F)c(F)c(F)c3)nn2)[C@H]1O)C(C)(C)O` [Example 2.31.102R., (2S,3R,4S,5R,6R)-2-(((R)-2-Hydroxy-2-methyl-1-(o-tolyl)propyl)thio)-6-(hydroxymethyl)-4-(4-(3,4,5-trifluorophenyl)-1H-1,2,3-triazol-1-yl)tetrahydro-2H-pyran-3,5-diol]: the IC50 is 1.42 µM at human Gal-1 (hGal-1) and 0.12 µM at human Gal-3 (hGal-3) (setting [2]).
As for `CO[C@@H]1[C@@H](n2cc(-c3cc(F)c(F)c(F)c3)nn2)[C@@H](O)[C@@H](CO)O[C@H]1S[C@H](c1ccccc1C1CC1)C1(O)CCC(F)(F)CC1` [Example 2.44.106R.I., (2R,3R,4S,5R,6S)-6-(((R)-(2-Cyclopropylphenyl)(4,4-difluoro-1-hydroxycyclohexyl)methyl)thio)-2-(hydroxymethyl)-5-methoxy-4-(4-(3,4,5-trifluorophenyl)-1H-1,2,3-triazol-1-yl)tetrahydro-2H-pyran-3-ol], the half-inhibitory concentration (IC50) on human Gal-1 (hGal-1) stood at 0.21 µM; at human Gal-3 (hGal-3) (setting [1]), 0.18 µM.
Consider `Cc1ccccc1[C@H](S[C@@H]1O[C@H](CO)[C@H](O)[C@H](n2cc(-c3cc(F)c(F)c(F)c3)nn2)[C@H]1O)C(C)(C)O` [Example 2.31.102S., (2S,3R,4S,5R,6R)-2-(((S)-2-Hydroxy-2-methyl-1-(o-tolyl)propyl)thio)-6-(hydroxymethyl)-4-(4-(3,4,5-trifluorophenyl)-1H-1,2,3-triazol-1-yl)tetrahydro-2H-pyran-3,5-diol], for which the IC50 on human Gal-1 (hGal-1) amounted to 6.98 µM; at human Gal-3 (hGal-3) (setting [2]), 4.43 µM.
The matching figures for `OCC(S[C@@H]1O[C@H](CO)[C@H](O)[C@H](n2cc(-c3cccc(F)c3)nn2)[C@H]1O)c1ccccc1Br` (stereo partly drawn) [Example 1.30.101., (2S,3R,4S,5R,6R)-2-((1-(2-Bromophenyl)-2-hydroxyethyl)thio)-4-(4-(3-fluorophenyl)-1H-1,2,3-triazol-1-yl)-6-(hydroxymethyl)tetrahydro-2H-pyran-3,5-diol]: 5.77 µM and 1.7 µM.
The matching figures for `CO[C@@H]1[C@@H](n2cc(-c3cc(F)c(F)c(F)c3)nn2)[C@@H](O)[C@@H](CO)O[C@H]1SC(c1ccccc1C(F)(F)F)C1(O)CCN(S(=O)(=O)C2CC2)CC1` (stereo partly drawn) [Example 2.51.112.I., 1-(Cyclopropylsulfonyl)-4-((((2S,3R,4S,5R,6R)-5-hydroxy-6-(hydroxymethyl)-3-methoxy-4-(4-(3,4,5-trifluorophenyl)-1H-1,2,3-triazol-1-yl)tetrahydro-2H-pyran-2-yl)thio)(2-(trifluoromethyl)phenyl)methyl)piperidin-4-ol]: 0.35 µM and 0.08 µM.
For `O=C(NC1CC1)N1CCC(O)([C@@H](S[C@@H]2O[C@H](CO)[C@H](O)[C@H](n3cc(-c4cc(F)c(F)c(F)c4)nn3)[C@H]2O)c2ccccc2C(F)(F)F)CC1` [Example 2.49.112S., N-Cyclopropyl-4-((S)-(((2S,3R,4S,5R,6R)-3,5-dihydroxy-6-(hydroxymethyl)-4-(4-(3,4,5-trifluorophenyl)-1H-1,2,3-triazol-1-yl)tetrahydro-2H-pyran-2-yl)thio)(2-(trifluoromethyl)phenyl)methyl)-4-hydroxypiperidine-1-carboxamide], the half-inhibitory concentration (IC50) was determined as 12.1 µM on human Gal-1 (hGal-1) and 3.06 µM at human Gal-3 (hGal-3) (setting [2]).
Regarding `Cc1ccccc1[C@@H](S[C@@H]1O[C@H](CO)[C@H](O)[C@H](n2cc(-c3cc(F)c(F)c(F)c3)nn2)[C@H]1O)C1(O)CCCC1` [Example 2.38.102R., (2S,3R,4S,5R,6R)-2-(((R)-(1-Hydroxycyclopentyl)(o-tolyl)methyl)thio)-6-(hydroxymethyl)-4-(4-(3,4,5-trifluorophenyl)-1H-1,2,3-triazol-1-yl)tetrahydro-2H-pyran-3,5-diol], the IC50 stood at 1.8 µM on human Gal-1 (hGal-1) and 0.11 µM at human Gal-3 (hGal-3) (setting [3]).
For the compound `Cc1nc(C)c([C@H](S[C@@H]2O[C@H](CO)[C@H](O)[C@H](n3cc(-c4cc(F)c(F)c(F)c4)nn3)[C@H]2O)C2(O)CCN(C)CC2)nc1C` [Example 2.40.119S., (2S,3R,4S,5R,6R)-2-(((S)-(4-Hydroxy-1-methylpiperidin-4-yl)(3,5,6-trimethylpyrazin-2-yl)methyl)thio)-6-(hydroxymethyl)-4-(4-(3,4,5-trifluorophenyl)-1H-1,2,3-triazol-1-yl)tetrahydro-2H-pyran-3,5-diol], the concentration for half-maximal inhibition (IC50) on human Gal-1 (hGal-1) turned out to be 10.8 µM; at human Gal-3 (hGal-3) (setting [2]), 3.04 µM.
